Experimental data from PMC7397174, “4-Arylthieno[2,3-b]pyridine-2-carboxamides Are a New Class of Antiplasmodial Agents” (Molecules, 2020).
Counter-ions that a name gives are not always drawn.

Experiments:
[1] = system: erythrocytic forms of P. falciparum (strain 3D7); assay: Viability screening of antiplasmodial activity (SYBR-gold DNA quantification, 96 h); format: cell-based, Plasmodium falciparum; settings: for activity at 0.3 µM / activity at 3 µM / IC50: Plasmodium falciparum; for activity at 0.3 µM / activity at 3 µM: 96 h, strain 3D7, calculated on DMSO controls; for activity at 0.3 µM: read-out: Parasitemia (3D7) at 0.3 µM [%]; for activity at 3 µM: read-out: Parasitemia (3D7) at 3 µM [%]; for SI (Selectivity index for 3D7 erythrocytic forms versus HEK293 cells): 3D7 versus HEK293 cells; for IC50: 3D7, strain 3D7, erythrocytic forms; for IC50 (3D7) [nM]: strain 3D7, erythrocytic forms
in vitro = format: cell-based, human; settings: human, HEK293T Viability at 30 µM [%]
Experimental: Cytotoxic effects of test compounds on eukaryotic cells were investigated using a HEK293T cell viability assay. First, the cell density of a HEK293T culture was determined. […] The supernatant was then aspirated and fresh culture medium was added to 200 μL into which the test compounds were previously added. All substances were previously dissolved in DMSO. […] The viability of the cells was then examined by adding PrestoBlue® Cell Viability Agent (Invitrogen, Carlsbad, CA, USA). The supernatant was removed, 10% PrestoBlue® was added in preheated PBS and the culture was incubated for 30 min at 37 °C. In cells with an active metabolism, the PrestoBlue dye is reduced, causing it to fluorescence. The fluorescence (λex = 560 nm, λem = 590 nm) was measured in an EnVision Multilable Plate Reader (Perkin Elmer, Waltham, MA, USA; integration time 0.1 sec/well).

rPfGSK-3 = rPfGSK-3 (Plasmodium falciparum, UniProt O77344); assay: KinaseGlo Plus assay for inhibition of PfGSK-3; format: biochemical; settings: 10 µM; remaining activity, calculated on DMSO controls; Table 3; read-out: rPfGSK-3 Activity at 10 µM [%]
Sequence of rPfGSK-3 (O77344 entry or part of it): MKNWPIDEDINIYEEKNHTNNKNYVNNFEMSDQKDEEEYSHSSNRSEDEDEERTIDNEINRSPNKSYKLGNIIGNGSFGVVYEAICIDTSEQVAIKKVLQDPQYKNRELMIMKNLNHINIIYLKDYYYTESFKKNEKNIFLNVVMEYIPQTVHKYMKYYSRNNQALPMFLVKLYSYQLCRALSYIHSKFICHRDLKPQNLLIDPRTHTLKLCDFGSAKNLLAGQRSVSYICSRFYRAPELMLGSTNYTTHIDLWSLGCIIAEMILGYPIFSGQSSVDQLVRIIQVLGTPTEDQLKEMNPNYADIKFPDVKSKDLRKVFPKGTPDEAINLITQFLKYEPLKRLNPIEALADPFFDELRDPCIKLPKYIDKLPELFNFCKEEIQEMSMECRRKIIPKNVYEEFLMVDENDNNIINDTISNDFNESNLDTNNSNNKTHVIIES

SMILES | activity at 0.3 µM [1] [%] | activity at 3 µM [1] [%] | viability at 48 h, 30 µM (in vitro) [%] | remaining activity at 10 µM (rPfGSK-3) [%] | SI (Selectivity index for 3D7 erythrocytic forms versus HEK293 cells) [1] | IC50 [1] [nM] | IC50 (3D7) [nM] [1]
CN(CCNC(=O)OC(C)(C)C)c1ccc(-c2c(C#N)c(N)nc3sc(C(=O)Nc4ccccc4Cl)c(N)c23)c(Cl)c1 [Compound 9ad, tert-Butyl {2-[(3-chloro-4-{3,6-diamino-2-[(2-chlorophenyl)carbamoyl]-5-cyanothieno[2,3-b]pyridin-4-yl}phenyl)(methyl)amino]ethyl}carbamate] | 57.7 ± 24.1 | 13.3 ± 9.9 | 76.3 ± 24.1 | 95 ± 10.7 | – | – | –
N#Cc1c(N)nc2sc(C(=O)Nc3cccc(Cl)c3)c(N)c2c1-c1ccc(N2CCNCC2)cc1Cl [Compound 9q, 3,6-Diamino-4-[2-chloro-4-(piperazin-1-yl)phenyl]-N-(3-chlorophenyl)-5-cyanothieno[2,3-b]pyridine-2-carboxamide hydrochloride] | 6.5 ± 3.1 | 4.9 ± 3 | -13.1 ± 5.4 | 72.6 ± 12.8 | – | – | –
N#Cc1c(N)nc2sc(C(=O)Nc3ccc(F)cc3)c(N)c2c1-c1ccc(N2CCCC2)cc1Cl [Compound 9aa, 3,6-Diamino-4-[2-chloro-4-(pyrrolidin-1-yl)phenyl]-5-cyano-N-(4-fluorophenyl)thieno[2,3-b]pyridine-2-carboxamide] | 61.8 ± 27.7 | 5.3 ± 2.6 | 74 ± 8.6 | 101 ± 3.7 | – | – | –
Cc1cccc(-c2c(C#N)c(N)nc3sc(C(=O)Nc4ccccc4Cl)c(N)c23)c1 [Compound 9f, 3,6-Diamino-N-(2-chlorophenyl)-5-cyano-4-(3-methylphenyl)thieno[2,3-b]pyridine-2-carboxamide] | 80.2 ± 20.3 | 51.6 ± 15.7 | 93.6 ± 29.9 | 90.9 ± 14.2 | – | – | –
N#Cc1c(N)nc2sc(C(=O)Nc3ccc(F)cc3)c(N)c2c1-c1cccc(F)c1 [Compound 9i, 3,6-Diamino-5-cyano-4-(3-fluorophenyl)-N-(4-fluorophenyl)thieno[2,3-b]pyridine-2-carboxamide] | 65.8 ± 24.6 | 6.1 ± 4.9 | < 50 | 70.9 ± 19.8 | – | – | –
Cc1cccc(-c2c(C#N)c(N)nc3sc(C(=O)NC(C)C)c(N)c23)c1 [Compound 9l, 3,6-Diamino-5-cyano-N-isopropyl-4-(3-methylphenyl)thieno[2,3-b]pyridine-2-carboxamide] | 80.6 ± 22 | 79.8 ± 20.3 | 70.6 ± 23 | 54.1 ± 15.5 | – | – | –
CN(CCNC(=O)OC(C)(C)C)c1ccc(-c2c(C#N)c(N)nc3sc(C(=O)Nc4cccc(Cl)c4)c(N)c23)c(Cl)c1 [Compound 9w, tert-Butyl {2-[(3-chloro-4-{3,6-diamino-2-[(3-chlorophenyl)carbamoyl]-5-cyanothieno[2,3-b]pyridin-4-yl}phenyl)(methyl)amino]ethyl}carbamate] | 50.1 ± 37.9 | 3.6 ± 2.4 | 76.1 ± 17.3 | 95.3 ± 8.6 | >30 | 860 | –
Cc1cc(-c2ccc(N3CCN(C(=O)OC(C)(C)C)CC3)cc2Cl)c2c(N)c(C(=O)Nc3ccc(Cl)cc3)sc2n1 [Compound 17l, tert-Butyl 4-(4-{3-amino-2-[(4-chlorophenyl)carbamoyl]-6-methylthieno[2,3-b]pyridin-4-yl}-3-chloro-phenyl)piperazine-1-carboxylate] | 25.5 ± 14.4 | 1 ± 6.9 | 68.4 ± 24.3 | 103 ± 12.9 | >100 | 55.5 | two-digit nanomolar range
N#Cc1c(N)nc2sc(C(=O)Nc3ccc(Cl)cc3)c(N)c2c1-c1ccc(N2CCCC2)cc1Cl [Compound 9z, 3,6-Diamino-4-[2-chloro-4-(pyrrolidin-1-yl)phenyl]-N-(4-chlorophenyl)-5-cyanothieno[2,3-b]pyridine-2-carboxamide] | 73.1 ± 22.1 | 6.4 ± 5.8 | 91.9 ± 13.6 | 109 ± 4.9 | – | – | –
CN(CCNC(=O)OC(C)(C)C)c1ccc(-c2c(C#N)c(N)nc3sc(C(=O)Nc4ccc(Cl)cc4)c(N)c23)c(Cl)c1 [Compound 9y, tert-Butyl {2-[(3-chloro-4-{3,6-diamino-2-[(4-chlorophenyl)carbamoyl]-5-cyanothieno[2,3-b]pyridin-4-yl}phenyl)(methyl)amino]ethyl}carbamate] | 36.6 ± 27.4 | 5.5 ± 4.6 | 81.7 ± 19.6 | 110 ± 7.7 | >40 | 699 | –
N#Cc1c(N)nc2sc(C(=O)Nc3ccc(Cl)cc3)c(N)c2c1-c1cccc(Cl)c1 [Compound 9a, 3,6-Diamino-4-(3-chlorophenyl)-N-(4-chlorophenyl)-5-cyanothieno[2,3-b]pyridine-2-carboxamide] | 23.1 ± 10.8 | 3.7 ± 3.6 | 123 ± 8.4 | 80.3 ± 18.2 | >70 | 410 | –
Cc1cccc(-c2c(C#N)c(N)nc3sc(C(=O)NCCC4CC4)c(N)c23)c1 [Compound 9o, 3,6-Diamino-5-cyano-N-(2-cyclopropylethyl)-4-(3-methylphenyl)thieno[2,3-b]pyridine-2-carboxamide] | 62.5 ± 23.5 | 40.8 ± 14.3 | – | 60 ± 11.2 | – | – | –
Cc1cccc(-c2c3c(nc4sc(C(=O)Nc5ccc(Cl)cc5)c(N)c24)CCC3)c1 [Compound 17f, 3-Amino-N-(4-chlorophenyl)-4-(3-methylphenyl)-6,7-dihydro-5H-cyclopenta[b]thieno[3,2-e]pyridine-2-carboxamide] | 9.1 ± 16.1 | 1 ± 14.9 | 72.4 ± 23.4 | 103 ± 6.2 | >100 | 19.2 | two-digit nanomolar range
N#Cc1c(N)nc2sc(C(=O)Nc3ccccc3Cl)c(N)c2c1-c1cccc(Cl)c1 [Compound 9c, 3,6-Diamino-N-(2-chlorophenyl)-4-(3-chlorophenyl)-5-cyanothieno[2,3-b]pyridine-2-carboxamide] | 69.2 ± 26 | 40 ± 15.9 | 99.3 ± 5.3 | 99 ± 14.1 | – | – | –
N#Cc1c(N)nc2sc(C(=O)Nc3ccc(Cl)cc3)c(N)c2c1-c1cccc(F)c1 [Compound 9h, 3,6-Diamino-N-(4-chlorophenyl)-5-cyano-4-(3-fluorophenyl)thieno[2,3-b]pyridine-2-carboxamide] | 63.2 ± 19.5 | 3.9 ± 2.9 | 90.7 ± 13.2 | 104 ± 13.3 | – | – | –
Cc1cccc(-c2c(C#N)c(N)nc3sc(C(=O)Nc4ccc(Cl)cc4)c(N)c23)c1 [Compound 9e, 3,6-Diamino-N-(4-chlorophenyl)-5-cyano-4-(3-methylphenyl)thieno[2,3-b]pyridine-2-carboxamide] | 9.7 ± 6.8 | 5.6 ± 5.5 | 83.3 ± 20.6 | 106 ± 6.5 | >100 | 273 | –
Nc1c(C(=O)Nc2ccc(Cl)cc2)sc2nc3c(c(-c4ccccc4)c12)CCCC3 [Compound 17d, 3-Amino-N-(4-chlorophenyl)-4-phenyl-5,6,7,8-tetrahydrothieno[2,3-b]quinoline-2-carboxamide] | 6.2 ± 5.7 | 8.4 ± 17.5 | – | 106 ± 10.6 | – | – | –
